TGI data for 8 compounds are collected here from PubChem BioAssay (NCI).

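Assay format: 96-well plates, 48-hour exposure. TGI: total growth inhibition.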

Test systems include M19-MEL melanoma; LXFL 529 NSCLC; SNB-78 CNS; HOP-18 NSCLC; DMS 273 small cell lung; XF 498 CNS; DMS 114 small cell lung; KM20L2 colon.
Holding throughout (test): NCI anticancer screen, dose series, 48 h

As to `COc1c(C)c2c(c3c1c(=O)c1ccccc1n3C)C=CC(C)(C)O2`, the TGI in the experiment on M19-MEL melanoma was found to be 82.4 µM; with LXFL 529 NSCLC, 94.4 µM; with SNB-78 CNS it was 72.9 µM; with HOP-18 NSCLC, 97.8 µM; in the experiment on DMS 273 small cell lung, 38 µM; in the experiment on XF 498 CNS, 55.7 µM. The TGI in the experiment with DMS 114 small cell lung was 43 µM; in the experiment on KM20L2 colon, greater than 100 µM.

As for `CN(C)CC1CCCC(CN2CCCCC2)C1=O` (centres undefined), the TGI with M19-MEL melanoma is 34.7 µM; in the experiment with SNB-78 CNS, 23.9 µM; with HOP-18 NSCLC, 4.71 µM; in the experiment with DMS 273 small cell lung, 54.9 µM; with DMS 114 small cell lung, greater than 23.4 µM; in the experiment on KM20L2 colon, 41.6 µM.

As to `O=C(CSc1nnc(Cc2ccccc2)o1)Nc1cccc(Cl)c1`, the TGI in the experiment with M19-MEL melanoma, in the experiment with LXFL 529 NSCLC, with SNB-78 CNS, in the experiment with HOP-18 NSCLC, in the experiment with DMS 273 small cell lung and in the experiment on KM20L2 colon was greater than 100 µM throughout.

`CC(C)C1C(=O)NC(CO)Cc2c[nH]c3c(C(c4c[nH]c5ccccc45)C(O)CO)ccc(c23)N1C` (centres undefined): the TGI in the experiment on M19-MEL melanoma, with LXFL 529 NSCLC, in the experiment on SNB-78 CNS, with HOP-18 NSCLC, in the experiment with DMS 273 small cell lung and in the experiment with XF 498 CNS was greater than 100 µM each time.

As to `O=C(/C=C/c1ccc(O)c(O)c1)OC1C[C@@](O)(C(=O)O)C[C@@H](O)[C@H]1OC(=O)/C=C/c1ccc(O)c(O)c1` (some centres undefined), the TGI in the experiment with M19-MEL melanoma, with LXFL 529 NSCLC, in the experiment on SNB-78 CNS, in the experiment on HOP-18 NSCLC, in the experiment on DMS 273 small cell lung and in the experiment with XF 498 CNS was greater than 100 µM throughout. Further, the TGI in the experiment on DMS 114 small cell lung and in the experiment with KM20L2 colon was greater than 100 µM in each case.

For `O=c1cc(-c2ccccc2)oc2cc(OCC(O)COc3ccc4c(=O)cc(-c5ccccc5)oc4c3)ccc12`, the TGI in the experiment on M19-MEL melanoma is greater than 100 µM; in the experiment with LXFL 529 NSCLC, greater than 100 µM; in the experiment with SNB-78 CNS it was 58.9 µM; in the experiment on HOP-18 NSCLC it was greater than 100 µM; in the experiment on DMS 273 small cell lung, greater than 100 µM; in the experiment with XF 498 CNS, 48.1 µM. In addition, the TGI with DMS 114 small cell lung and in the experiment on KM20L2 colon was greater than 100 µM in each case.

On to `CCOC(=O)C1(C#N)C(c2ccccc2)CC(O)(c2ccc([N+](=O)[O-])cc2)C(C(=O)c2ccc([N+](=O)[O-])cc2)C1c1ccccc1` (centres undefined), for which the TGI in the experiment on M19-MEL melanoma, with LXFL 529 NSCLC, with SNB-78 CNS, in the experiment with HOP-18 NSCLC, in the experiment on DMS 273 small cell lung and in the experiment with XF 498 CNS was greater than 100 µM each time. For the same compound, the TGI in the experiment with DMS 114 small cell lung and in the experiment with KM20L2 colon was greater than 100 µM throughout.

Regarding `C=C1C(=O)OC2/C=C(\C)C3OC3/C=C(/C(=O)OC)C(O)C(OC(=O)C3(C)OC3C)C12` (centres undefined), the TGI in the experiment with LXFL 529 NSCLC worked out at 2.8 µM; in the experiment with SNB-78 CNS it was 3.97 µM; in the experiment with DMS 273 small cell lung, 3.02 µM; in the experiment on DMS 114 small cell lung, 1.94 µM.
